Laboratory results: patent US8609608B2, “Antimicrobial peptides” (C3 Jian, Inc., priority 2007, dated 2013)
Like-named read-outs stand apart in the source and are kept apart here. Where no end group is shown, it is not given here.

Tests used:
[1] = tested on: clinical isolates of S. mutans; type: cell-based, Streptococcus mutans
Protocol: S. mutans clinical isolates UA140 (32), UA159 (1), T8 (33), ATCC 25175, GS5 (Kuramitsu and Ingersoll (1977) Infect Immun., 17: 330-337), and all gram-positive strains listed below (see Table 9) were grown under anaerobic conditions in brain heart infusion or Todd-Hewitt (TH) broth (Difco) overnight at 37° C. prior to use (Eckert et al. (2006) Antimicrob. Agents Chemother. 50: 3651-3657). Veillonella atypica PK1910 was grown in Veillonella medium (Egland et al. (2004) Proc. Natl. Acad. Sci., USA, 101: 16917-16922). All strains were grown in an anaerobic atmosphere of 80% N2, 10% CO2, and 10% H2.
Antibacterial growth inhibition assays were performed using sterile 96-well plates in a final volume of 100 μl, TH or Veillonella medium as described previously (Qi et al. (2005) FEMS Microbial Lett. 251: 321-326). Briefly, bacterial cells were grown overnight to an optical density at 600 nm of 0.75 to 0.8 (corresponding to 1×10^8 CFU/ml) and then diluted to 1×10^5 CFU/ml in broth and aliquoted onto plates. An appropriate volume of peptide stock solution (5 to 20 mg/ml, in water or methanol, depending on solubility) was then added to the first column of the plate to give 500 μg/ml or 512 μg/ml, followed by serial 1:2 dilutions across the plate to give wells containing peptides ranging from 500 to 1.95 μg/ml or 512 to 2 μg/ml. Methanol alone was also added to control for the effects of the solvent. The plates were then incubated at 37° C. under anaerobic conditions for 16 to 20 h without shaking, and the MIC was determined as the concentration of peptide present in the last clear well after visual inspection. Up to 5% (vol/vol) methanol was found not to be antimicrobial (data not shown). MICs were determined in triplicate for all bacteria.

P. aeruginosa = test: MIC against P. aeruginosa; type: cell-based, Pseudomonas aeruginosa

| Substance | MIC ([1]; clinical isolates of) [µg/mL] | also measured |
| --- | --- | --- |
| AKRLLKVLKRF-NH2 [Peptide B-62, AKRLLKVLKRF*] | 16 to 32 | – |
| AQAAHQAAHAAHQF-NH2 [α-4, AQAAHQAAHAAHQF*] | >125 | activity against S. mutans by MIC, in words [1]: inactive |
| AQAAKQAAKAAKQF-NH2 [α-8, AQAAKQAAKAAKQF*] | – | activity against S. mutans by MIC, in words [1]: inactive; MIC ([1]; MIC range or value from all S. mutans isolates tested, binary, alpha-helix and RW libraries): >125 µg/mL |
| ATHLLHALQRF-NH2 [Peptide B-46, ATHLLHALQRF*] | >250 | – |
| FHIKFRVHLKVRFHF [Peptide S3L8-6, FHIKFRVHLKVRFHF] | – | MIC S. aureus (S. aureus): >125 µg/mL; MIC L. casei (L. casei): 8 µg/mL; MIC P. aeruginosa (P. aeruginosa): >125 µg/mL; MIC E. faecalis (E. faecalis): >125 µg/mL |
| FHVKIHFRLHVKFHF [Peptide S3L8-7, FHVKIHFRLHVKFHF] | – | MIC S. aureus (S. aureus): >125 µg/mL; MIC L. casei (L. casei): 16 µg/mL; MIC P. aeruginosa (P. aeruginosa): >125 µg/mL; MIC E. faecalis (E. faecalis): >125 µg/mL |
| FHYFWHWFHRF-NH2 [Peptide B-49, FHYFWHWFHRF*] | 125 | activity against S. mutans by MIC, in words [1]: weakly active |
| FKAHIRFKLRVKFHF [Peptide S3L8-10, FKAHIRFKLRVKFHF] | – | MIC S. aureus (S. aureus): >125 µg/mL; MIC L. casei (L. casei): 8 µg/mL; MIC P. aeruginosa (P. aeruginosa): >125 µg/mL; MIC E. faecalis (E. faecalis): >125 µg/mL |
| FKKFWKWFRRFGGGRWRRLLKKLHHLLH-NH2 [FBα-12, FKKFWKWFRRF-GGG-RWRRLLKKLHHLLH*] | – | MIC (fusion library peptides) ([1]; clinical isolates of): 16 µg/mL |
| FKTFLKWLHRF-NH2 [Peptide B-37, FKTFLKWLHRF*] | 24 | activity against S. mutans by MIC, in words [1]: active but to a lesser degree than B-33 or B-34 |
| FKTFLQWLHRF-NH2 [Peptide B-53, FKTFLQWLHRF*] | 16 to 64 | activity against S. mutans by MIC, in words [1]: active but to a lesser degree than B-33 or B-34 |
| IKQLLHFFQRFGGGRWRRLLKKLHHLLH-NH2 [FBα-13, IKQLLHFFQRF-GGG-RWRRLLKKLHHLLH*] | – | MIC (fusion library peptides) ([1]; clinical isolates of): 16 µg/mL |
| IKTLLHFFQRF-NH2 [Peptide B-54, IKTLLHFFQRF*] | 32 to 62.5 | activity against S. mutans by MIC, in words [1]: active but to a lesser degree than B-33 or B-34 |
| IKVFAKQKY-NH2 [Peptide S6L1-7, IKVFAKQKY*] | – | MIC S. aureus (S. aureus; Killing Peptide Library #7): >500 µg/mL; MIC S. mutans ([1]; clinical isolates of): >500 µg/mL; MIC P. aeruginosa (P. aeruginosa): >500 µg/mL |
| KFVKLILAY-NH2 [Peptide S6L1-5, KFVKLI LAY*] | – | MIC S. aureus (S. aureus; Killing Peptide Library #7): >500 µg/mL; activity against S. mutans by MIC, in words [1]: moderate activity; MIC S. mutans ([1]; clinical isolates of): 32 µg/mL; MIC P. aeruginosa (P. aeruginosa): 92 µg/mL |
| KLAENVKEILR-OH [Peptide B-47, KLAENVKEILR] | >250 | – |
| KLAQKVKRVLR [Peptide B-63, KLAQKVKRVLR] | >125 | – |
| KLFKRWKHLFR-OH [Peptide B-35, KLFKRWKHLFR] | 31.25 to 125 | – |
| KLKKLLKHLHHLLH-NH2 [α-12, KLKKLLKHLHHLLH*] | 8 | – |
| KLKKLLKKLKKLLK [α-5, KLKKLLKKLKKLLK] | 8 | – |
| KLKKLLKRWRRWWR-OH [α-10, KLKKLLKRWRRWWR] | 8 | – |

| Substance | MIC ([1]; clinical isolates of) [µg/mL] | also measured |
| --- | --- | --- |
| KLLQTFKQIFR-OH [Peptide B-39, KLLQTFKQIFR] | >250 | – |
| KLLQTFNQIFR-OH [Peptide B-55, KLLQTFNQIFR] | >125 | – |
| KLVEQLKEIFR-OH [Peptide B-43, KLVEQLKEIFR] | >250 | – |
| KLVKLVFLY-NH2 [Peptide S6L1-6, KLVKLVFLY*] | – | MIC S. aureus (S. aureus; Killing Peptide Library #7): >500 µg/mL; MIC S. mutans ([1]; clinical isolates of): 125 µg/mL; MIC P. aeruginosa (P. aeruginosa): >500 µg/mL |
| KLVQQLKNIFR-OH [Peptide B-59, KLVQQLKNIFR] | >125 | – |
| LKQFVHFIHRF-NH2 [Peptide B-41, LKQFVHFIHRF*] | 32 | activity against S. mutans by MIC, in words [1]: active but to a lesser degree than B-33 or B-34 |
| LKQFVKFIHRF-NH2 [Peptide B-57, LKQFVKFIHRF*] | 24 | activity against S. mutans by MIC, in words [1]: active but to a lesser degree than B-33 or B-34 |
| LKQKLKILF-NH2 [Peptide S6L1-2, LKQKLK1LF*] | – | MIC S. aureus (S. aureus; Killing Peptide Library #7): >500 µg/mL; MIC S. mutans ([1]; Killing Peptide Library #7): 125 µg/mL; MIC P. aeruginosa (P. aeruginosa; Killing Peptide Library #7): >500 µg/mL |
| LKQLKAGIY-NH2 [Peptide S6L1-3, LKQLKAGIY*] | – | MIC S. aureus (S. aureus; Killing Peptide Library #7): >500 µg/mL; MIC S. mutans ([1]; clinical isolates of): >500 µg/mL; MIC P. aeruginosa (P. aeruginosa): 250 µg/mL |
| LQLLKQLLKLLKQF-NH2 [α-7, LQLLKQLLKLLKQF*] | 8 | – |
| LYHFLHWFQRF-NH2 [Peptide B-50, LYHFLHWFQRF*] | 125 | activity against S. mutans by MIC, in words [1]: weakly active |
| RALHEAKEALK-OH [Peptide B-48, RALHEAKEALK] | >250 | – |
| RALKRIKHVLK [Peptide B-64, RALKRIKHVLK] | >125 | – |
| RFRHFQERY-NH2 [Peptide S6L1-8, RFRHFQERY*] | – | MIC S. aureus (S. aureus; Killing Peptide Library #7): 125 µg/mL; MIC S. mutans ([1]; clinical isolates of): 64 µg/mL; MIC P. aeruginosa (P. aeruginosa): >500 µg/mL |
| RILKELKNLFK-OH [Peptide B-40, RILKELKNLFK] | >250 | – |
| RLLKRFKHLFK-OH [Peptide B-36, RLLKRFKHLFK] | 31.25 to 125 | – |
| RRRFWWR [Peptide 2C-1, RRRFWWR] | 31.25 to 125 | – |
| RRRKWWK [Peptide 4C-1, RRRKWWK] | 250 | – |
| RRRKWWK [Peptide 4C-3, RRRKWWK] | 125 | – |
| RRRRWWK [Peptide 3C-1, RRRRWWK] | 125 | – |
| RRRRWWW [Peptide 1C-1, RRRRWWW] | 16 | – |

| Substance | MIC ([1]; clinical isolates of) [µg/mL] | also measured |
| --- | --- | --- |
| RRRWWWK [Peptide 3C-3, RRRWWWK] | 31.25 to 125 | – |
| RRRWWWR [Peptide 1C-3, RRRWWWR] | 32 | – |
| RRWKRRK [Peptide 4C-2, RRWKRRK] | 500 | – |
| RRWWRRF-NH2 [Peptide 2C-2, RRWWRRF*] | 12 to 24 | – |
| RRWWRRK [Peptide 3C-2, RRWWRRK] | 125 | – |
| RRWWRRW [Peptide 1C-2, RRWWRRW] | 16 | – |
| RVLNQVKQILK [Peptide B-60, RVLNQVKQILK] | >125 | – |
| RVLQEIKQILK-OH [Peptide B-44, RVLQEIKQILK] | >250 | – |
| RWRKRWK [Peptide 4C-4, RWRKRWK] | 125 to 500 | – |
| RWRRWWRHFHHFFH-NH2 [α-9, RWRRWWRHFHHFFH*] | 8 | – |
| RWRWRWK [Peptide 3C-4, RWRWRWK] | 32 | – |
| RWRWRWR [Peptide 1C-4, RWRWRWR] | 32 | – |
| VGKCVKLLY-NH2 [Peptide S6L1-4, VGKCVKLLY*] | – | MIC S. aureus (S. aureus; Killing Peptide Library #7): 500 µg/mL; MIC S. mutans ([1]; clinical isolates of): 125 µg/mL; MIC P. aeruginosa (P. aeruginosa): 250 µg/mL |
| VKKLAKLVRRF-NH2 [Peptide B-61, VKKLAKLVRRF*] | 16 to 32 | – |
| VKNLAELVHRF-NH2 [Peptide B-45, VKNLAELVHRF*] | >250 | – |
| VKQLLKIFNRF-NH2 [Peptide B-58, VKQLLKIFNRF*] | 32 to 62.5 | activity against S. mutans by MIC, in words [1]: active but to a lesser degree than B-33 or B-34 |
| VKTLLHIFQRF-NH2 [Peptide B-42, VKTLLHIFQRF*] | 31.25 to 125 | – |
| YLFQTWQHLFR-OH [Peptide B-51, YLFQTWQHLFR] | >125 | – |
| YLLTEFQHLFK-OH [Peptide B-52, YLLTEFQHLFK] | >125 | – |
